Laboratory results reported in ChEMBL document CHEMBL4330144, “A mitochondria-targeted organic arsenical accelerates mitochondrial metabolic disorder and function injury” (Bioorg Med Chem, 2019).
Active and inactive are the calls of the source. No cut-off for these calls is given here.

Experiments:
NB-4 [1] = experiment: Cytotoxicity against human NB4 cells after 24 hrs by MTT assay; format: functional, cell-based; conditions: NB-4, 24 h
SGC-7901 [2] = experiment: Cytotoxicity against human SGC7901 cells after 24 hrs by MTT assay; format: functional, cell-based; conditions: SGC-7901, 24 h
MCF7 [3] = experiment: Cytotoxicity against human MCF7 cells after 24 hrs by MTT assay; format: functional, cell-based; conditions: MCF7, 24 h
HEK293 = experiment: Cytotoxicity against HEK293 cells after 24 hrs by MTT assay; format: cell-based; conditions: Homo sapiens, HEK293, 24 h
NB-4 [4] = experiment: Cytotoxicity against human NB4 cells after 48 hrs by MTT assay; format: functional, cell-based; conditions: NB-4, 48 h
HL-60 = experiment: Cytotoxicity against human HL60 cells after 48 hrs by MTT assay; format: functional, cell-based; conditions: HL-60, 48 h
SGC-7901 [5] = experiment: Cytotoxicity against human SGC7901 cells after 48 hrs by MTT assay; format: functional, cell-based; conditions: SGC-7901, 48 h
MCF7 [6] = experiment: Cytotoxicity against human MCF7 cells after 48 hrs by MTT assay; format: functional, cell-based; conditions: MCF7, 48 h
NB-4 [7] = experiment: Induction of mitochondrial membrane potential loss in human NB4 cells at 0.6 uM after 3 hrs by JC1 staining based flow cytometry (reference value: 27.7%); format: functional
NB-4 [8] = experiment: Induction of mitochondrial membrane potential loss in human NB4 cells at 0.6 uM after 6 hrs by JC1 staining based flow cytometry (reference value: 27.7%); format: functional
NB-4 [9] = experiment: Induction of ROS generation in human NB4 cells at 0.6 uM after 1 to 6 hrs by DCFH-DA staining based flow cytometry; format: functional, cell-based
NB-4 [10] = experiment: Cytotoxicity against human NB4 cells assessed as reduction in cell viability up to 2.4 uM up to 8 hrs by MTT assay; format: functional, cell-based
NB-4 [11] = experiment: Cytotoxicity against human NB4 cells assessed as reduction in cell viability at 1 to 1.2 uM after 24 hrs in presence of DTT by trypan blue assay; format: functional, cell-based
NB-4 [12] = experiment: Cytotoxicity against human NB4 cells assessed as reduction in cell viability at 1 to 1.2 uM after 24 hrs in presence of DMP by trypan blue assay; format: functional, cell-based
NB-4 [13] = experiment: Induction of mitochondrial membrane potential loss in human NB4 cells at 0.3 to 2.4 uM after 24 hrs by JC-1 staining based confocal microscopic method; format: functional, cell-based
Rattus norvegicus [14] = species on record: Rattus norvegicus; experiment: Induction of mitochondrial membrane potential loss in isolated Wistar rat mitochondria assessed as activity recovery phase rate constant at 50 uM using pyruvate as substrate up to 3 hrs by microcalorimetry; format: functional
Rattus norvegicus [15] = species on record: Rattus norvegicus; experiment: Induction of mitochondrial membrane potential loss in isolated Wistar rat mitochondria assessed as stationary increase phase rate constant at 100 uM using pyruvate as substrate up to 3 hrs by microcalorimetry; format: functional
Rattus norvegicus [16] = species on record: Rattus norvegicus; experiment: Induction of mitochondrial membrane potential loss in isolated Wistar rat mitochondria assessed as stationary increase phase rate constant at 25 uM using pyruvate as substrate up to 3 hrs by microcalorimetry (reference value: 1 to 1.18 10^-3/min); format: functional
Rattus norvegicus [17] = species on record: Rattus norvegicus; experiment: Induction of mitochondrial membrane potential loss in isolated Wistar rat mitochondria assessed as decline phase rate constant at 50 uM using pyruvate as substrate up to 3 hrs by microcalorimetry; format: functional
Rattus norvegicus [18] = species on record: Rattus norvegicus; experiment: Induction of mitochondrial membrane potential loss in isolated Wistar rat mitochondria assessed as decline phase rate constant at 25 uM using pyruvate as substrate up to 3 hrs by microcalorimetry (reference value: -24.13 to -20.47 10^-3/min); format: functional
Rattus norvegicus [19] = species on record: Rattus norvegicus; experiment: Induction of mitochondrial membrane potential loss in isolated Wistar rat mitochondria assessed as maximum power output at 50 uM using pyruvate as substrate up to 3 hrs by microcalorimetry; format: functional
Rattus norvegicus [20] = species on record: Rattus norvegicus; experiment: Induction of mitochondrial membrane potential loss in isolated Wistar rat mitochondria assessed as maximum power output time at 25 uM using pyruvate as substrate up to 3 hrs by microcalorimetry (reference value: 45.07 to 49.89 hrs); format: functional
Rattus norvegicus [21] = species on record: Rattus norvegicus; experiment: Induction of mitochondrial membrane potential loss in isolated Wistar rat mitochondria assessed as total heat output at 50 uM using pyruvate as substrate up to 3 hrs by microcalorimetry; format: functional
Rattus norvegicus [22] = species on record: Rattus norvegicus; experiment: Inhibition of mitochondrial respiration in isolated Wistar rat mitochondria assessed as decrease in succinate/ADP-stimulated respiratory control ratio up to 16 uM by Clark oxygen electrode method; format: functional
Rattus norvegicus [23] = species on record: Rattus norvegicus; experiment: Inhibition of ETC3 in isolated Wistar rat mitochondria assessed as decrease in oxidized cyochrome-c reduction at 50 uM incubated for 3 to 5 mins and measured for up to 3 mins
NB-4 [24] = experiment: Induction of ROS generation in human NB4 cells up to 1.2 uM up to 24 hrs by DCFH-DA staining based flow cytometry; format: functional, cell-based
NB-4 [25] = experiment: Induction of ROS generation in human NB4 cells up to 1.2 uM up to 24 hrs by DHE staining based flow cytometry; format: functional, cell-based
NB-4 [26] = experiment: Induction of decrease in intracellular total thiols level in human NB4 cells up to 1.2 uM up to 24 hrs; format: functional, cell-based
NB-4 [27] = experiment: Reduction in cell viability in human NB4 cells up to 1.6 uM up to 24 hrs by MTT assay; format: functional, cell-based
NB-4 [28] = experiment: Reduction in cell viability in human NB4 cells up to 2.4 uM up to 24 hrs by MTT assay; format: functional, cell-based
Rattus norvegicus [29] = species on record: Rattus norvegicus; experiment: Induction of mitochondrial swelling in isolated Wistar rat mitochondria at 30 uM in presence of cyclosporin-A; format: functional
Rattus norvegicus [30] = species on record: Rattus norvegicus; experiment: Induction of inner mitochondrial membrane permeabilization in isolated Wistar rat mitochondria assessed as H+ permeabilization at 5 to 75 uM measured for 10 to 30 mins; format: functional
NB-4 [31] = experiment: Induction of cytochrome-c release in human NB4 cells after 24 hrs by ELISA; format: functional, cell-based
NB-4 [32] = experiment: Induction of apoptosis in human NB4 cells assessed as nuclear condensation at 0.6 to 1.2 uM after 24 hrs by Hoechst 33342/propidium iodide staining based confocal microscopic method; format: functional, cell-based
NB-4 [33] = experiment: Induction of apoptosis in human NB4 cells assessed as live cells after 24 hrs by Annexin V-FITC/propidium iodide staining based flow cytometry (reference value: 92%); format: functional
NB-4 [34] = experiment: Induction of apoptosis in human NB4 cells assessed as necrotic cells after 24 hrs by Annexin V-FITC/propidium iodide staining based flow cytometry (reference value: 0.1%); format: functional
NB-4 [35] = experiment: Induction of apoptosis in human NB4 cells assessed as early apoptotic cells after 24 hrs in presence of Z-VAD-fmk by Annexin V-FITC/propidium iodide staining based flow cytometry (reference value: 5%); format: functional
NB-4 [36] = experiment: Induction of apoptosis in human NB4 cells assessed as late apoptotic cells after 24 hrs in presence of Z-VAD-fmk by Annexin V-FITC/propidium iodide staining based flow cytometry (reference value: 2.9%); format: functional
NB-4 [37] = experiment: Induction of apoptosis in human NB4 cells assessed as live cells after 24 hrs in presence of Nec-1 by Annexin V-FITC/propidium iodide staining based flow cytometry (reference value: 92%); format: functional
NB-4 [38] = experiment: Induction of apoptosis in human NB4 cells assessed as early apoptotic cells after 24 hrs in presence of Nec-1 by Annexin V-FITC/propidium iodide staining based flow cytometry (reference value: 5%); format: functional
NB-4 [39] = experiment: Induction of apoptosis in human NB4 cells assessed as late apoptotic cells after 24 hrs in presence of Nec-1 by Annexin V-FITC/propidium iodide staining based flow cytometry (reference value: 2.9%); format: functional

Compound: O=C(CC[P+](c1ccccc1)(c1ccccc1)c1ccccc1)Nc1ccc([As]2SCCCS2)cc1.[Cl-]
- IC50 (NB-4 [1]): 650 nM
- IC50 (SGC-7901 [2]): 4630 nM
- IC50 (MCF7 [3]): 4440 nM
- IC50 (HEK293): 4630 nM
- IC50 (NB-4 [4]): 510 nM
- IC50 (HL-60): 3230 nM
- IC50 (SGC-7901 [5]): 990 nM
- IC50 (MCF7 [6]): 1460 nM
- Activity (NB-4 [7]): 73.9%
- Activity (NB-4 [8]): 81.5%
- Activity (NB-4 [9]): inactive
- Activity (NB-4 [10]): inactive
- Activity (NB-4 [11]): inactive
- Activity (NB-4 [12]): inactive
- Activity (NB-4 [13]): Active
- K (Rattus norvegicus [14]): 4.82 ×10⁻³ /min
- K (Rattus norvegicus [15]): 0.41 ×10⁻³ /min
- K (Rattus norvegicus [16]): 0.72 ×10⁻³ /min
- K (Rattus norvegicus [17]): -9.35 ×10⁻³ /min
- K (Rattus norvegicus [18]): -14.1 ×10⁻³ /min
- Activity (Rattus norvegicus [19]): 107 W
- TIME (Rattus norvegicus [20]): 45.4 h
- Activity (Rattus norvegicus [21]): 10.2 J
- inhibition (Rattus norvegicus [22]): Active
- inhibition (Rattus norvegicus [23]): Active
- Activity (NB-4 [24]): Active
- Activity (NB-4 [25]): Active
- Activity (NB-4 [26]): Active
- Activity (NB-4 [27]): Active
- Activity (NB-4 [28]): Active
- Activity (Rattus norvegicus [29]): inactive
- Activity (Rattus norvegicus [30]): Active
- Activity (NB-4 [31]): Dose-dependent effect
- Activity (NB-4 [32]): Active
- Activity (NB-4 [33]): 69.3%
- Activity (NB-4 [34]): 1.4%
- Activity (NB-4 [35]): 12.7%
- Activity (NB-4 [36]): 5.2%
- Activity (NB-4 [37]): 71.2%
- Activity (NB-4 [38]): 11.6%
- Activity (NB-4 [39]): 16.2%
